# Experiment: Hydrogel degradation measured by swelling
# Assay type: physicochemical
# Conditions: pH 7.4
# Method: Additionally, degradation was followed by measuring QM as a function of time. MS was measured at specific time points until gels lacked physical integrity. QM was calculated for each time point and normalized to the QM of the non-swollen network at time zero (MG/MD). Initial mesh size (ξ) and crosslink density (vc) were calculated via the Flory-[…] theory.
substance,measurement,value
PEG-dithiolpropionate [PEG-DD2],Degradation Time,8.0 ± 0.5 days

# Reference: patent US12398255B2, “Biocompatible crosslinkers for controlled degradation of polymer hydrogels” (Saint Louis University, priority 2020, dated 2025)
